US20250313546A1, “NUCLEIC ACID BINDERS” (UNIVERSITY OF STRATHCLYDE, priority 2022, published 2025)
In brackets after ≈: the same amount, converted by molar mass.

Key:
[1] = system: Staphylococcus aureus (ATCC 43300); test: Antibacterial MIC, broth microdilution (CLSI); type: cell-based; details: for S. aureus Selectivity Indices, Group: Alkyl Amidines and NH Pyrroles; for MIC80: Staphylococcus aureus, ATCC43300, read-out: MIC80 S. aureus
[2] = system: Enterococcus faecalis (ATCC 51299); test: Antibacterial MIC, broth microdilution (CLSI); type: cell-based; details: for MIC80: Enterococcus faecalis, ATCC51299, read-out: MIC80 E. faecalis; for E. faecalis Selectivity Indices, Group / E. faecalis Selectivity Index (SI): SI, IC50 (μM)/MIC80 (μM), HEK293 cytotoxicity; for E. faecalis Selectivity Indices, Group: Alkyl Amidines and NH Pyrroles; for E. faecalis Selectivity Index (SI): numeric value
[3] = system: Escherichia coli (ATCC 25922); test: Antibacterial MIC, broth microdilution (CLSI); type: cell-based; details: Escherichia coli, ATCC25922; read-out: MIC80 E. coli
[4] = system: Human rhinovirus (HRV-14); test: Viral ToxGlo assay, Hela Ohio cells; type: cell-based; details: M-HeLa, 72 h
[5] = system: human respiratory syncytial virus (RSV A2); test: Viral ToxGlo assay, Hep-2 cells; type: cell-based; details: 72 h
Influenza (H1N1) = test: Accelerated Viral Neuraminidase Inhibition Assay (AVINA), A549 cells; type: cell-based; details: Influenza A virus, 72 h
[6] = system: Genomic double stranded DNA (salmon); test: Fluorescence intercalator displacement (FID) assay, SYBR-safe probe; details: 20 μM compound, 30° C., lower % = stronger binding
Outline: (§1)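 Compound at 20 μM mixed with 3.76 ng/mL polyAU dsRNA or salmon genomic dsDNA and 12500-fold diluted SybrSafe in 1 mM phosphate buffer pH 7.4, then heated to 30 °C and fluorescence read. Reduction is expressed as normalised %, with nucleic acid plus probe as maximum and probe alone as minimum.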

[7] = system: PolyAU double stranded RNA; test: as above; details: 20 μM compound, 30° C., lower % = stronger binding
Outline: as §1

C. neoformans (F10025) = details: Cryptococcus neoformans, read-out: MIC99 C. neoformans
[8] = system: A. fumigatus A1160 (MFIG001); details: Aspergillus fumigatus, read-out: MIC99 A. fumigatus A1160
Protocol: (§2) The Minimum Inhibitory Concentration (MIC, at 99% inhibition) of the compounds was determined using the broth microdilution method as recommended by EUCAST (EUCAST Definitive Document E.DEF 9.3.2, Method for the determination of broth dilution minimum inhibitory concentrations of antifungal agents for conidia forming moulds and EUCAST Definitive Document E.DEF 7.3.2 Method for the determination of broth dilution minimum inhibitory concentrations of antifungal agents for yeasts).

[9] = system: Rhizopus arrhizus (NEQAS12.35321); details: read-out: MIC99 Rhizopus arrhizus
Candida auris (H.17.157) = details: for MIC99: Candidozyma auris, read-out: MIC99 Candida auris; for C. auris Selectivity Indices, Group: Alkyl Amidines and NH Pyrroles
Protocol: as §2

[10] = system: Candida glabrata (ACPF3309); details: for MIC99: Nakaseomyces glabratus, read-out: MIC99 Candida glabrata; for C. glabrata Selectivity Indices, Group: Alkyl Amidines and NH Pyrroles
T. equiperdum = test: Resazurin-based (Alamar blue) drug sensitivity assay; details: Trypanosoma equiperdum, read-out: IC50 T. equiperdum
Protocol: (§3) A detailed description of the procedure for evaluating activity against trypanosomes, using an Alamar Blue (resazurin) assay, is described below.
(§4) The bloodstream form (BSF) T. b. brucei s427 (see De Koning, H. P. et al., Mol. Biochem. Parasitol. 2000, 106, 181-185), T. evansi AntTat 3/3 (see Dean, S. et al., Proc. Natl. Acad. Sci. USA, 2013, 110, 14741-14746), and T. equiperdum (see Stewart, M. L. et al., Eukaryot. Cell, 2010, 9, 336-343) were cultured in HMI-9 medium (Life Technologies, Paisley, United Kingdom) supplemented with 10% heat inactivated Foetal Bovine Serum (FBS (PAA Laboratories Linz, Austria)), 14 μL/L β-mercaptoethanol (BDH, Dorset, UK), and 3.0 g/L NaHCO3 (Sigma-Aldrich) and adjusted to pH 7.4. These cell lines were maintained at 37° C. in a humidified, 5% CO2 environment.
(§5) A resazurin-based (Alamar blue) drug sensitivity assay was used to assess and compare the activity of standard trypanocides in the different cell lines investigated (see Gould, M. K. et al., Anal. Biochem., 2008, 382, 87-93). Briefly, 23 doubling dilutions of the test compound of the invention, starting at 100 μM, and a compound-free control were prepared in 100 μL medium in a 96-well white plate (Greiner Bio-one, Frickenhausen, Germany). The cells were adjusted to 2×10^4 cells/mL for T. b. brucei and T. equiperdum; 4×10^4 cells/mL for T. evansi; and 5×10^5 cells/mL for T. congolense in the appropriate medium. 100 μL of the adjusted cells was then added to the wells containing drug dilutions and incubated for 48 h under respective culture condition. Thereafter, 20 μL of 125 mg/mL resazurin sodium dye was added, and the plate was incubated for a further 24 h.

T. evansi AntTat 3/3 = test: as above; details: read-out: IC50 T. evansi
Protocol: as §3, §4, §5

[11] = system: SARS-CoV-2 (hCoV-19/Australia/VIC01/2020); test: SARS-CoV-2 microplaque inhibition assay in Vero-E6 cells; type: cell-based; details: for IC50: Severe acute respiratory syndrome coronavirus 2, Vero C1008, plaque inhibition, Vero-E6 cells, read-out: IC50 SARS-CoV-2
T. vaginalis = test: Trichomonas resorufin assay; type: cell-based; details: for T. vaginalis Selectivity Indices, Group / T. vaginalis Selectivity Index (SI): SI, IC50 (μM)/IC50 (μM), HEK293 cytotoxicity; for IC50: Trichomonas vaginalis, read-out: IC50 T. vaginalis; for T. vaginalis Selectivity Index (SI): numeric value
[12] = SI, IC50 (μM)/MIC80 (μM), HEK293 cytotoxicity
[13] = SI, IC50 (μM)/MIC99 (μg/mL), HEK293 cytotoxicity
[14] = SI, IC50 (μM)/MIC99 (μg/mL), HEK293 cytotoxicity, numeric value

| Compound | S. aureus Selectivity Indices, Group [1, 12] | MIC80 [1] | MIC80 [2] | MIC80 [3] | inhibition at 20 µM [4] | inhibition at 20 µM [5] | inhibition at 20 µM (Influenza (H1N1)) | % Normalised Fluorescence with gDNA [6] | % Normalised Fluorescence with polyAU RNA [7] | MIC99 (C. neoformans (F10025)) | MIC99 [8] | MIC99 [9] | MIC99 (Candida auris (H.17.157)) | MIC99 [10] | C. glabrata Selectivity Indices, Group [10, 13] | IC50 (T. equiperdum) | IC50 (T. evansi AntTat 3/3) | E. faecalis Selectivity Indices, Group [2] | C. auris Selectivity Indices, Group (Candida auris (H.17.157); [13]) | IC50 (T. vaginalis) | other results |
| --- | --- | --- | --- | --- | --- | --- | --- | --- | --- | --- | --- | --- | --- | --- | --- | --- | --- | --- | --- | --- | --- |
| Cn1cc(NC(=O)c2ccc(/C=C/c3ccc4nonc4c3)cc2)cc1C(=O)Nc1c[nH]c(C(=O)NCCC(=N)N)c1 [IIIa3, (E)-N-(5-((3-amino-3-iminopropyl)carbamoyl)-1H-pyrrol-3-yl)-4-(4-(2-(benzo[c][1,2,5]oxadiazol-5-yl)vinyl)benzamido)-1-methyl-1H-pyrrole-2-carboxamide] | B (Group B: 3 < SI <= 5) | 5 to 25 µM (≈ 2.83 to 14.1 µg/mL) | 5 to 25 µM (≈ 2.83 to 14.1 µg/mL) | > 100 µM | 25 to 50% | > 50% | > 50% | 27% | 3% | < 5 µg/mL | 5 to 25 µg/mL (≈ 8.84 to 44.2 µM) | > 50 µg/mL | > 50 µg/mL | < 5 µg/mL | B (Group B: 12 < SI <= 20) | 0.01 to 0.1 µM | 0.01 to 0.1 µM | – | – | – | – |
| N=C(N)CCNC(=O)c1cc(NC(=O)c2cc(NC(=O)c3ccc(/C=C/c4cnc5ccccc5c4)cc3)c[nH]2)c[nH]1 [IIIa6, (E)-N-(3-amino-3-iminopropyl)-4-(4-(4-(2-(quinolin-3-yl)vinyl)benzamido)-1H-pyrrole-2-carboxamido)-1H-pyrrole-2-carboxamide] | D (D: SI > 10) | < 5 µM | < 5 µM | 25 to 100 µM (≈ 14 to 56.1 µg/mL) | > 50% | > 50% | > 50% | 18% | 29% | < 5 µg/mL | 5 to 25 µg/mL (≈ 8.92 to 44.6 µM) | 25 to 50 µg/mL (≈ 44.6 to 89.2 µM) | 5 to 25 µg/mL (≈ 8.92 to 44.6 µM) | < 5 µg/mL | D (Group D: SI > 50) | < 0.01 µM | 0.01 to 0.1 µM | D (D: SI > 10) | D (Group D SI > 3) | – | S. aureus Selectivity Index (SI) ([1]; SI, IC50 (μM)/MIC80 (μM), HEK293 cytotoxicity, numeric value): 14; E. faecalis Selectivity Index (SI) [2]: 14; C. glabrata Selectivity Index (SI) [10, 14]: 109 |
| CN(C)c1ccc(/C=C/c2ccc(C(=O)Nc3c[nH]c(C(=O)Nc4c[nH]c(C(=O)NCCC(=N)N)c4)c3)cn2)cc1 [IIIa9, (E)-N-(5-((5-((3-amino-3-iminopropyl)carbamoyl)-1H-pyrrol-3-yl)carbamoyl)-1H-pyrrol-3-yl)-6-(4-(dimethylamino)styryl)nicotinamide] | C (Group C: 5 < SI <= 10) | 5 to 25 µM (≈ 2.77 to 13.8 µg/mL) | 5 to 25 µM (≈ 2.77 to 13.8 µg/mL) | 25 to 100 µM (≈ 13.8 to 55.4 µg/mL) | 25 to 50% | – | 10 to 25% | 16% | 24% | < 5 µg/mL | 5 to 25 µg/mL (≈ 9.03 to 45.2 µM) | 5 to 25 µg/mL (≈ 9.03 to 45.2 µM) | 5 to 25 µg/mL (≈ 9.03 to 45.2 µM) | < 5 µg/mL | C (Group C 20 < SI <= 50) | > 1 µM | 0.1 to 1 µM | C (Group C: 5 < SI <= 10) | D (Group D SI > 3) | – | SARS-CoV-2 Selectivity Indices, Group ([11]; SI, IC50 (μM)/IC50 (μM), HEK293 cytotoxicity, Alkyl Amidines and NH Pyrroles): D (Group D: SI > 25); SARS-CoV-2 Selectivity Index (SI) ([11]; SI, IC50 (μM)/IC50 (μM), HEK293 cytotoxicity, numeric value): 33; IC50 [11]: < 2 µM; C. auris Selectivity Index (SI) (Candida auris (H.17.157); [14]): 6 |
| CN(C)c1ccc(/C=C/c2ccc(C(=O)Nc3c[nH]c(C(=O)Nc4c[nH]c(C(=O)NCCN5CCOCC5)c4)c3)cn2)cc1 [IIIb7, (E)-6-(4-(dimethylamino)styryl)-N-(5-((5-((2-morpholinoethyl)carbamoyl)-1H-pyrrol-3-yl)carbamoyl)-1H-pyrrol-3-yl)nicotinamide] | B (Group B: 3 < SI <= 5) | 5 to 25 µM (≈ 2.98 to 14.9 µg/mL) | > 100 µM | > 100 µM | 10 to 25% | – | – | 63% | 44% | – | – | – | – | – | – | – | – | – | – | – | – |
| COCCOCCOCCNC(=O)c1cc(NC(=O)c2cc(NC(=O)c3ccc(/C=C/c4cnc5ccccc5c4)cc3)cn2C)cn1C [IVa8, (E)-N-(2-(2-(2-methoxyethoxy)ethoxy)ethyl)-1-methyl-4-(1-methyl-4-(4-(2-(quinolin-3-yl)vinyl)benzamido)-1H-pyrrole-2-carboxamido)-1H-pyrrole-2-carboxamide] | – | 5 to 25 µM (≈ 3.32 to 16.6 µg/mL) | 5 to 25 µM (≈ 3.32 to 16.6 µg/mL) | > 100 µM | 25 to 50% | 10 to 25% | 10 to 25% | 70% | 94% | – | – | – | – | – | – | – | – | – | – | 5 to 50 µM | T. vaginalis Selectivity Indices, Group (T. vaginalis; Amides): B (Group B: 0.25 < SI <= 0.5) |
| CC(C)=CCC/C(C)=C/CNC(=O)c1cc(NC(=O)c2cc(NC(=O)c3ccc(/C=C/c4cnc5ccccc5c4)cc3)cn2C)cn1C [IVa10, N—((E)-3,7-dimethylocta-2,6-dien-1-yl)-1-methyl-4-(1-methyl-4-(4-((E)-2-(quinolin-3-yl)vinyl)benzamido)-1H-pyrrole-2-carboxamido)-1H-pyrrole-2-carboxamide] | – | 5 to 25 µM (≈ 3.27 to 16.4 µg/mL) | 25 to 100 µM (≈ 16.4 to 65.5 µg/mL) | > 100 µM | > 50% | > 50% | 10 to 25% | – | – | > 50 µg/mL | 25 to 50 µg/mL (≈ 38.2 to 76.4 µM) | – | – | 5 to 25 µg/mL (≈ 7.64 to 38.2 µM) | – | – | – | – | – | 5 to 50 µM | – |
| CC(C)/N=C(\N)CCNC(=O)c1cc(NC(=O)c2cc(NC(=O)c3ccc(/C=C/c4ccc5nonc5c4)cc3)cn2C)cn1C [Ia13, N—((Z)-3-amino-3-(isopropylimino)propyl)-4-(4-(4-((E)-2-(benzo[c][1,2,5]oxadiazol-5-yl)vinyl)benzamido)-1-methyl-1H-pyrrole-2-carboxamido)-1-methyl-1H-pyrrole-2-carboxamide] | C (Group C: 5 < SI <= 10) | 5 to 25 µM (≈ 3.11 to 15.5 µg/mL) | < 5 µM | > 100 µM | 25 to 50% | > 50% | > 50% | 2% | 3% | 5 to 25 µg/mL (≈ 8.04 to 40.2 µM) | > 50 µg/mL | – | – | 25 to 50 µg/mL (≈ 40.2 to 80.4 µM) | – | – | – | D (D: SI > 10) | – | 1 to 5 µM | E. faecalis Selectivity Index (SI) [2]: 12; T. vaginalis Selectivity Indices, Group (T. vaginalis; Alkyl Amidines and NH Pyrroles): C (Group C: 16 < SI <= 32); T. vaginalis Selectivity Index (SI) (T. vaginalis): 17; IC50 [11]: 8 to 32 µM |
| CC(C)NC(=N)CCNC(=O)c1cc(NC(=O)c2cc(NC(=O)c3ccc(/C=C/c4cnc5ccccc5c4)cc3)cn2C)cn1C [Ia21, (E)-N-(3-imino-3-(isopropylamino)propyl)-1-methyl-4-(1-methyl-4-(4-(2-(quinolin-3-yl)vinyl)benzamido)-1H-pyrrole-2-carboxamido)-1H-pyrrole-2-carboxamide] | – | < 5 µM | < 5 µM | > 100 µM | > 50% | 25 to 50% | 25 to 50% | 3% | 2% | > 50 µg/mL | 5 to 25 µg/mL (≈ 7.93 to 39.6 µM) | 5 to 25 µg/mL (≈ 7.93 to 39.6 µM) | 25 to 50 µg/mL (≈ 39.6 to 79.3 µM) | < 5 µg/mL | – | – | – | – | B (Group B: 0.4 < SI <= 1) | < 1 µM | T. vaginalis Selectivity Indices, Group (T. vaginalis; Alkyl Amidines and NH Pyrroles): D (Group D: SI > 32); T. vaginalis Selectivity Index (SI) (T. vaginalis): 41 |
